The values that follow come from US20230364243A1, “CANCER-SELECTIVE TARGET DEGRADATION BY TARGETING GROUP CAGED PROTACS” (Beth Israel Deaconess Medical Center, Inc., priority 2021, published 2023).

Each structure is given as a SMILES string. pIC50: −log10 of the molar value.

The test system of one series is MEK1 and MEK2. The series is described as follows: Western blot analysis of MEK1 and MEK2 levels in HT29 and SK-MEL-28 cells. Format: cell-based. The settings on record: HT29 and SK-MEL-28 cells, dose- and time-dependent. As to the method:
(§1) For folic acid competitive degradation assay, cells were pretreated with folic acid (F8758, Sigma-Aldrich, 2.5 mM) for 2 hours, followed by the treatment of indicated PROTACs for indicated time. For endocytosis inhibition, cells were pretreated with Pitostop 2 (SML1169, Sigma-Aldrich, 1-30 μM) or MCD (21633, Cayman, 0.03-1 mM) for 12 hours, followed by co-treatment with indicated PROTACs for another 12 hours. For proteasome or E3 ligase inhibition assay, cells were treated with MG132 (BML-P11020, ENZO Life Sciences, 10 μM) or MLN4924 (S7109, SelleckChem, 1 μM) another 12 hours. For GSH-stimulating assay, cells were treated with S-Acetyl-GSH (29624, Cayman, 1 mM) with indicated PROTACs for 12 or 72 hours.
(§2) Cells were lysed in EBC buffer (50 mM Tris pH 7.5, 120 mM NaCl, 0.5% NP-40) supplemented with protease inhibitors (Pierce) and phosphatase inhibitors (phosphatase inhibitor cocktail set I and II, Calbiochem). The protein concentrations of the lysates were measured using the Bio-Rad protein assay reagent on a Beckman Coulter DU-800 spectrophotometer. The lysates were then resolved by SDS-PAGE and immunoblotted with indicated antibodies.
(§3) Cells were lysed in EBC buffer (50 mM Tris-HCl pH 7.5, 120 mM NaCl and 0.5% NP-40) supplemented with protease inhibitors (Pierce) and phosphatase inhibitors (phosphatase inhibitor cocktailset I and II, Calbiochem). The protein concentrations of the lysates were measured using the Bio-Rad protein assay reagent on a Beckman Coulter DU-800 spectrophotometer. The lysates (40 μg protein) werethen resolved by 10% SDS-olyacrylamide gel electrophoresis (PAGE) at 130 V for 80 min and immunoblotted with indicated antibodies at 4° C. overnight, washed four times with Tris-buffered saline with 0.1% Tween-20 (TBST) buffer, incubated with secondary antibody for 1 hour at room temperature, and then washed 4 times with TBST.

The test system of the next series is SU-DHL-1 cells. The series is described as follows: Cell viability of SU-DHL-1 cells (CCK-8). The series is classed as cell-based. The settings on record: 72 hours; for pIC50: Homo sapiens, read-out: IC50 cell viability / proliferation. As for the experimental part: as §1
Cell in 96-well plates were treated with drugs as indicated, and then incubated with 10 μl/well of CCK-8 (cell counting Kit-8) solution at for 1-2 hours, followed by the measurement of optical density at 450 nm.

The next series concerns the target T1, NPM-ALK fusion protein (Homo sapiens, UniProt Q9UM73).
T1 construct: endogenous in cells; host or cells: SU-DHL-1; the other entry of the earlier key: NPM1 (P06748, Nucleophosmin)
The series is described as follows: Western blot analysis of NPM-ALK fusion protein in SU-DHL-1 cells. Format: cell-based. The settings on record: for DC50: read-out: DC50 of NPM-ALK fusion protein degradation; for effect in degrading NPM-ALK fusion protein after pretreatment with folic acid: free folic acid pretreatment. As to the method:
as §1, §2, §3

Series [1] is described as follows: Release of active compound after incubation with DTT in PBS at 37° C., HPLC analysis. The settings on record: 37° C. in PBS; for release of MS4048 after DTT treatment: DTT (10 equiv), HPLC. The series is classed as physicochemical. As for the experimental part:
FA-S2-POMA and the negative control FA-C2-POMA were incubated with dithiothreitol (DTT) under physiological conditions (37° C. in phosphate buffered saline (PBS)) and then subjected to HPLC analysis.
The effects of these folate caged PROTACS on ALK fusion protein degradation was assessed in cancer cells. FA-S2-MS4048 and FA-C2-MS4048 were incubated with DTT at 37° C. in PBS. […] Furthermore, compared to FA-S2-POMA (FIG. 11B), the release rate of FA-S2-MS4048 is slower.

The target of the next series is T2, EML4-ALK fusion protein (Homo sapiens, UniProt Q9UM73).
T2 construct: endogenous in cells; host or cells: NCI-H2228, NCI-H3122; the other entry of the earlier key: EML4 (Q9HC35, Echinoderm microtubule-associated protein-like 4)
T2 sequence (Q9UM73 1058-1620 limits assumed): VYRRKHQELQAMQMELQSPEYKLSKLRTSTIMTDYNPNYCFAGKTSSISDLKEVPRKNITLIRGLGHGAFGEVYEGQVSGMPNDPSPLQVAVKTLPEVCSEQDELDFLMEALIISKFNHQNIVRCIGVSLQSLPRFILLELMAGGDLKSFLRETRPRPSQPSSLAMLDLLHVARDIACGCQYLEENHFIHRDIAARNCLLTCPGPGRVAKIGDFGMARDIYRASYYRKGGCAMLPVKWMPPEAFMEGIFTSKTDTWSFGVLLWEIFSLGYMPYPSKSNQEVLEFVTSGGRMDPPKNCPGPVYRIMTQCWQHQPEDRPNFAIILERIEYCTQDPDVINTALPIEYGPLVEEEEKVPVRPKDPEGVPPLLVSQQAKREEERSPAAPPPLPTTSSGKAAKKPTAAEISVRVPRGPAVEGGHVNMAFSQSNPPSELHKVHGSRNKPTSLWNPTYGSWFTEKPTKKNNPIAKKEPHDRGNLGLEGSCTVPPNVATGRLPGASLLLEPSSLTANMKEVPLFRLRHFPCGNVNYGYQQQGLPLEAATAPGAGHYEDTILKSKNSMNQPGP
The series can be described thus: Western blot analysis of EML4-ALK fusion protein in NCI-H2228 and NCI-H3122 NSCLC cells. Format: cell-based. As to the method:
as §1, §2, §3

T1 sequence (Q9UM73 with tags, fused parts or gaps): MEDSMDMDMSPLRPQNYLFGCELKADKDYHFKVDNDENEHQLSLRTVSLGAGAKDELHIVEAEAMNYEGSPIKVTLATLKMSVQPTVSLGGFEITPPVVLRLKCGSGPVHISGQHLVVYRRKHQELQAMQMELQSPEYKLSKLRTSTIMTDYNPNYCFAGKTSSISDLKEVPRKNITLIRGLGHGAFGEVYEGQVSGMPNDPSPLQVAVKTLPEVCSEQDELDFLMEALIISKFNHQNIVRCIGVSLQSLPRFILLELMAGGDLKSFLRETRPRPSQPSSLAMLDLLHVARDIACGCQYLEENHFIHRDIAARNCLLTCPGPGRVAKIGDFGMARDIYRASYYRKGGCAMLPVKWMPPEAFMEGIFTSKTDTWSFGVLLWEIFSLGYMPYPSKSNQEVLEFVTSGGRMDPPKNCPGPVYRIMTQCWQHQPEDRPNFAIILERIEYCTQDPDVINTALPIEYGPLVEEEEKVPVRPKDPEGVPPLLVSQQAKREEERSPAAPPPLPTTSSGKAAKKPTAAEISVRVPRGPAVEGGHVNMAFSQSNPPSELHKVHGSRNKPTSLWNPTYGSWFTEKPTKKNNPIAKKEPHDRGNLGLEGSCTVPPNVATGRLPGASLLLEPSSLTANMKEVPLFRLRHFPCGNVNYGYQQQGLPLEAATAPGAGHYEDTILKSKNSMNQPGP

In the case of `Cc1ncsc1-c1ccc([C@H](C)NC(=O)[C@@H]2C[C@@H](NC(=O)CCCCn3cc(CNC(=O)CC[C@H](NC(=O)c4ccc(NCc5cnc6nc(N)[nH]c(=O)c6n5)cc4)C(=O)O)nn3)CN2C(=O)[C@@H](NC(=O)CCCCCCCCCCNCCCONC(=O)c2ccc(F)c(F)c2Nc2ccc(I)cc2F)C(C)(C)C)cc1` [Folate-MS432N, N^2-(4-(((2-amino-4-oxo-3,4-dihydropteridin-6-yl)methyl)amino)benzoyl)-N^5-((1-(5-(((3R,5S)-1-((S)-2-(11-((3-((3,4-difluoro-2-((2-fluoro-4-iodophenyl)amino)benzamido)oxy)propyl)amino)undecanamido)-3,3-dimethylbutanoyl)-5-(((S)-1-(4-(4-methylthiazol-5-yl)phenyl)ethyl)carbamoyl)pyrrolidin-3-yl)amino)-5-oxopentyl)-1H-1,2,3-triazol-4-yl)methyl)-L-glutamine], the “degradation of MEK1 and MEK2” value with MEK1 and MEK2 is recorded as “could not do so”.

For `Cc1cc(Nc2ncc(Cl)c(Nc3ccccc3S(=O)(=O)C(C)C)n2)c(OC(C)C)cc1C1CCN(C(=O)CCCC(=O)N[C@H](C(=O)N2C[C@H](O)C[C@H]2C(=O)N[C@@H](C)c2ccc(-c3scnc3C)cc2)C(C)(C)C)CC1` [MS99, (2S,4R)-1-((S)-2-(5-(4-(4-((5-chloro-4-((2-(isopropylsulfonyl)phenyl)amino)pyrimidin-2-yl)amino)-5-isopropoxy-2-methylphenyl)piperidin-1-yl)-5-oxopentanamido)-3,3-dimethylbutanoyl)-4-hydroxy-N-((S)-1-(4-(4-methylthiazol-5-yl)phenyl)ethyl)pyrrolidine-2-carboxamide], in the series on SU-DHL-1 cells, the pIC50 was 7.04. The “degradation of NPM-ALK fusion protein” value on NPM-ALK fusion protein (SU-DHL-1 cells) was “degraded NPM-ALK fusion protein efficiently”. Further, at NPM-ALK fusion protein (SU-DHL-1 cells, 12 hours), the DC50 was found to be 30 nM.

Take `Cc1cc(Nc2ncc(Cl)c(Nc3ccccc3S(=O)(=O)C(C)C)n2)c(OC(C)C)cc1C1CCN(CC(=O)NCCNc2cccc3c2C(=O)N(C2CCC(=O)N(C(=O)OCCSSCCn4cc(CNC(=O)CC[C@H](NC(=O)c5ccc(NCc6cnc7nc(N)[nH]c(=O)c7n6)cc5)C(=O)O)nn4)C2=O)C3=O)CC1` (stereo partly drawn) [FA-S2-MS4048, N^2-(4-(((2-amino-4-oxo-3,4-dihydropteridin-6-yl)methyl)amino)benzoyl)-N^5-((1-(2-((2-((3-(4-((2-(2-(4-(4-((5-chloro-4-((2-(isopropylsulfonyl)phenyl)amino)pyrimidin-2-yl)amino)-5-isopropoxy-2-methylphenyl)piperidin-1-yl)acetamido)ethyl)amino)-1,3-dioxoisoindolin-2-yl)-2,6-dioxopiperidine-1-carbonyl)oxy)ethyl)disulfanyl)ethyl)-1H-1,2,3-triazol-4-yl)methyl)-L-glutamine]: the “potency in inhibiting proliferation after pretreatment with folic acid” value in the series with SU-DHL-1 cells (2.5 mM folic acid) was “significantly reduced potency”. In the series with SU-DHL-1 cells, the pIC50 was 6.33. For the same molecule, the “potency in inhibiting proliferation after pretreatment with S-Ac-GSH” value in the series with SU-DHL-1 cells (S-Ac-GSH 1 mM) was “significantly increased potency”. Also, on NPM-ALK fusion protein (ALK fusion proteins), the “potency in degrading the ALK proteins compared with FA-C2-MS4048” value is “more potent than FA-C2-MS4048” and the “potency in degrading the proteins of interest compared with MS4048” value is “less potent than its uncaged analog, MS4048”. Further, at NPM-ALK fusion protein (SU-DHL-1 cells), the “degradation of NPM-ALK fusion protein” value is given as “effectively degraded” and the “effect in degrading NPM-ALK fusion protein after pretreatment with folic acid” value is given as “blocked the effect”. For the same molecule, the “time at which significant degradation was observed” value on NPM-ALK fusion protein (SU-DHL-1 cells, 3 μM) was not above 1 h. Also, on NPM-ALK fusion protein (SU-DHL-1 cells, 3 μM, 12 hours), the “effect on degrading NPM-ALK after depletion of endogenous CRBN E3 ligase” value was “significantly reduced the effect” and the “effect on degrading NPM-ALK after knockdown of FOLR1 via shRNAs” value is listed as “completely abolished the effect”. The “degradation of NPM-ALK with MG132 or MLN4924” value on NPM-ALK fusion protein (SU-DHL-1 cells, 10 μM MG132 or 1 μM MLN4924) is “blocked the degradation of NPM-ALK”. Besides, the “potency in degrading NPM-ALK after pretreatment with S-Ac-GSH” value on NPM-ALK fusion protein (SU-DHL-1 cells, S-Ac-GSH 1 mM) was “significant increase in potency”. The “release of MS4048 after DTT treatment” value in series [1] is on record as “efficient release of MS4048”. In series [1] (DTT), the “release rate compared to FA-S2-POMA” value was “slower”. Besides, the “degradation of EML4-ALK fusion proteins” value on EML4-ALK fusion protein is “effectively degraded”. Also, the “degradation of EML4-ALK with MG132 or MLN4924” value at EML4-ALK fusion protein (MG132 or MLN4924) is “blocked the degradation”.

Turning to `Cc1cc(Nc2ncc(Cl)c(Nc3ccccc3S(=O)(=O)C(C)C)n2)c(OC(C)C)cc1C1CCN(C(=O)CCCC(=O)N[C@H](C(=O)N2C[C@H](OC(=O)CCCCn3cc(CNC(=O)CC[C@H](NC(=O)c4ccc(NCc5cnc6nc(N)[nH]c(=O)c6n5)cc4)C(=O)O)nn3)C[C@H]2C(=O)N[C@@H](C)c2ccc(-c3scnc3C)cc2)C(C)(C)C)CC1` [Folate-MS99, N^2-(4-(((2-amino-4-oxo-3,4-dihydropteridin-6-yl)methyl)amino)benzoyl)-N^5-((1-(5-(((3R,5S)-1-((S)-2-(5-(4-(4-((5-chloro-4-((2-(isopropylsulfonyl)phenyl)amino)pyrimidin-2-yl)amino)-5-isopropoxy-2-methylphenyl)piperidin-1-yl)-5-oxopentanamido)-3,3-dimethylbutanoyl)-5-(((S)-1-(4-(4-methylthiazol-5-yl)phenyl)ethyl)carbamoyl)pyrrolidin-3-yl)oxy)-5-oxopentyl)-1H-1,2,3-triazol-4-yl)methyl)-L-glutamine], the pIC50 with SU-DHL-1 cells was 6.70. For the same molecule, at NPM-ALK fusion protein (SU-DHL-1 cells), the “degradation of NPM-ALK fusion protein” value is “degraded NPM-ALK fusion protein efficiently” and the “effect in degrading NPM-ALK fusion protein after pretreatment with folic acid” value is on record as “antagonized the effect”. Besides, at NPM-ALK fusion protein (SU-DHL-1 cells, 12 hours), the DC50 worked out at 100 nM. In addition, the “degradation of EML4-ALK fusion proteins” value on EML4-ALK fusion protein is on record as “efficiently degraded the EML4-ALK fusion proteins”. The “effect in degrading EML4-ALK fusion protein after pretreatment with free folic acid” value on EML4-ALK fusion protein (free folic acid pretreatment) is reported as “antagonized the effect”.

Take `Cc1cc(Nc2ncc(Cl)c(Nc3ccccc3S(=O)(=O)C(C)C)n2)c(OC(C)C)cc1C1CCN(C(=O)CCCC(=O)N[C@H](C(=O)N2C[C@H](NC(=O)CCCCn3cc(CNC(=O)CC[C@H](NC(=O)c4ccc(NCc5cnc6nc(N)[nH]c(=O)c6n5)cc4)C(=O)O)nn3)C[C@H]2C(=O)N[C@@H](C)c2ccc(-c3scnc3C)cc2)C(C)(C)C)CC1` [Folate-MS99N, N^2-(4-(((2-amino-4-oxo-3,4-dihydropteridin-6-yl)methyl)amino)benzoyl)-N^5-((1-(5-(((3R,5S)-1-((S)-2-(5-(4-(4-((5-chloro-4-((2-(isopropylsulfonyl)phenyl)amino)pyrimidin-2-yl)amino)-5-isopropoxy-2-methylphenyl)piperidin-1-yl)-5-oxopentanamido)-3,3-dimethylbutanoyl)-5-(((S)-1-(4-(4-methylthiazol-5-yl)phenyl)ethyl)carbamoyl)pyrrolidin-3-yl)amino)-5-oxopentyl)-1H-1,2,3-triazol-4-yl)methyl)-L-glutamine]: the “degrading NPM-ALK” value on NPM-ALK fusion protein (SU-DHL-1 cells, even at 3 μM) is recorded as “incapable of degrading NPM-ALK”.

As for `Cc1cc(Nc2ncc(Cl)c(Nc3ccccc3S(=O)(=O)C(C)C)n2)c(OC(C)C)cc1C1CCN(CC(=O)NCCNc2cccc3c2C(=O)N(C2CCC(=O)N(C(=O)OCCCCCCn4cc(CNC(=O)CC[C@H](NC(=O)c5ccc(NCc6cnc7nc(N)[nH]c(=O)c7n6)cc5)C(=O)O)nn4)C2=O)C3=O)CC1` (stereo partly drawn) [FA-C2-MS4048, N^2-(4-(((2-amino-4-oxo-3,4-dihydropteridin-6-yl)methyl)amino)benzoyl)-N^5-((1-(6-((3-(4-((2-(2-(4-(4-((5-chloro-4-((2-(isopropylsulfonyl)phenyl)amino)pyrimidin-2-yl)amino)-5-isopropoxy-2-methylphenyl)piperidin-1-yl)acetamido)ethyl)amino)-1,3-dioxoisoindolin-2-yl)-2,6-dioxopiperidine-1-carbonyl)oxy)hexyl)-1H-1,2,3-triazol-4-yl)methyl)-L-glutamine], in the series on SU-DHL-1 cells, the pIC50 was 5.02. Besides, the “degradation of NPM-ALK fusion protein” value on NPM-ALK fusion protein (SU-DHL-1 cells) is listed as “had some degradation effect”. Also, the “release of MS4048 after DTT treatment” value in series [1] is given as “no release of MS4048”.
